ChEMBL document CHEMBL4020776, “Stabilizing HDAC11 with SAHA to assay slow-binding benzamide inhibitors” (Bioorg Med Chem Lett, 2017)

Key:
[1] = target: T1, Histone deacetylase 11 (Homo sapiens) (UniProt Q96DB2); test: (§1) Inhibition of recombinant C-terminal His-tagged HDAC11 (unknown origin) expressed in baculovirus infected Sf9 cells at 2 uM using Ac-Arg-Gly-Lys(Ac)-AMC as substrate pretreated for 3 hrs followed by substrate addition after 30 mins by fluorometric method relative to control
T1 sequence (whole entry): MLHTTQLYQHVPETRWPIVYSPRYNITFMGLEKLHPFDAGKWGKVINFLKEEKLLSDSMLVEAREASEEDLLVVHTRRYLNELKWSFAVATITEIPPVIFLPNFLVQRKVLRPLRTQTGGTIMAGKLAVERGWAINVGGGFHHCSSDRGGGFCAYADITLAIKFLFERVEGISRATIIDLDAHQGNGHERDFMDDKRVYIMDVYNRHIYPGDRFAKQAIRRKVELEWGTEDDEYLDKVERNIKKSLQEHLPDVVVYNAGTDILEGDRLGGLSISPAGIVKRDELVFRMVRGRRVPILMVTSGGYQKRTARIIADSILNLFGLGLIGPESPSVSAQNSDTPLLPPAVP

[2] = target: T1, Histone deacetylase 11 (Homo sapiens); test: as §1, with “mins in presence of 0.2 uM SAHA” for “mins”
[3] = target: T1, Histone deacetylase 11 (Homo sapiens); test: Inhibition of recombinant C-terminal His-tagged HDAC11 (unknown origin) expressed in baculovirus infected Sf9 cells at 5 uM using Ac-Arg-Gly-Lys(Ac)-AMC as substrate pretreated followed by substrate addition after 30 mins by fluorometric method; settings: TDE = time-dependent effect
[4] = target: T2, Histone deacetylase 11 (Homo sapiens, UniProt Q96DB2); test: Inhibition of recombinant C-terminal His-tagged HDAC11 (unknown origin) expressed in baculovirus infected Sf9 cells using Ac-Arg-Gly-Lys(Ac)-AMC as substrate pretreated for 3 hrs followed by substrate addition after 30 mins by fluorometric method
T2 sequence (Q96DB2 whole entry): T1 sequence (whole entry)

[5] = target: T2, Histone deacetylase 11; test: Inhibition of recombinant C-terminal His-tagged HDAC11 (unknown origin) expressed in baculovirus infected Sf9 cells using Ac-Arg-Gly-Lys(Ac)-AMC as substrate pretreated for 3 hrs followed by substrate addition after 30 mins in presence of 0.2 uM SAHA by fluorometric method

Row | Compound | inhibition [1] [%] | inhibition [2] [%] | inhibition [3] | IC50 [4] [nM] | IC50 [5] [nM]
1 | Nc1ccccc1NC(=O)/C=C/c1cn([C@H]2C[C@@H](C(=O)O)N(CCCc3ccccc3)C2)nn1 | < 0 | < 10 |  |  | 
2 | Nc1ccccc1NC(=O)/C=C/c1cn([C@@H]2C[C@@H](CO)N(Cc3ccccc3)C2)nn1 | < 10 | 22 |  |  | 
3 | Nc1ccccc1NC(=O)/C=C/c1cn([C@@H]2C[C@H](CO)N(Cc3ccccc3)C2)nn1 | < 10 | 14 |  |  | 
4 | Nc1ccccc1NC(=O)/C=C/c1cn([C@@H]2C[C@H](C(=O)O)N(CCCc3ccccc3)C2)nn1 | < 10 | < 10 |  |  | 
5 | Nc1ccccc1NC(=O)/C=C/c1cn([C@H]2C[C@H](C(=O)O)N(CCCc3ccccc3)C2)nn1 | < 0 | < 10 |  |  | 
6 | Nc1ccccc1NC(=O)/C=C/c1cn([C@@H]2C[C@H](CO)N(CCc3ccccc3)C2)nn1 | < 0 | < 10 |  |  | 
7 | Nc1ccccc1NC(=O)/C=C/c1cn([C@@H]2C[C@@H](C(=O)O)N(Cc3ccccc3)C2)nn1 | < 0 | < 10 |  |  | 
8 | Nc1ccccc1NC(=O)/C=C/c1cn([C@H]2C[C@H](C(=O)O)N(Cc3ccccc3)C2)nn1 | 12 | < 10 |  |  | 
9 | Nc1ccccc1NC(=O)/C=C/c1cn([C@@H]2C[C@H](CO)N(CCCc3ccccc3)C2)nn1 | < 0 | 12 |  |  | 
10 | Nc1ccccc1NC(=O)/C=C/c1cn([C@@H]2C[C@H](C(=O)O)N(Cc3ccccc3)C2)nn1 |  | < 10 |  |  | 
11 | Nc1ccccc1NC(=O)/C=C/c1cn([C@H]2C[C@@H](C(=O)O)N(CCc3ccccc3)C2)nn1 |  | < 10 |  |  | 
12 | Nc1ccccc1NC(=O)/C=C/c1cn([C@H]2C[C@H](CO)N(CCCc3ccccc3)C2)nn1 | < 10 | 16 |  |  | 
13 | Nc1ccccc1NC(=O)/C=C/c1cn([C@@H]2C[C@@H](C(=O)O)N(CCCc3ccccc3)C2)nn1 | < 10 | < 10 |  |  | 
14 | Nc1ccccc1NC(=O)/C=C/c1cn([C@H]2C[C@@H](C(=O)O)N(Cc3ccccc3)C2)nn1 | < 0 | < 10 |  |  | 
15 | Nc1ccccc1NC(=O)/C=C/c1cn([C@@H]2C[C@H](C(=O)O)N(CCc3ccccc3)C2)nn1 | < 0 | < 10 |  |  | 
16 | Nc1ccccc1NC(=O)/C=C/c1cn([C@H]2C[C@H](CO)N(CCc3ccccc3)C2)nn1 | < 10 | < 10 |  |  | 
17 | Nc1ccccc1NC(=O)/C=C/c1cn([C@@H]2C[C@@H](CO)N(CCCc3ccccc3)C2)nn1 | < 10 | 13 |  |  | 

More lines, now with the values ahead:

Row | inhibition [1] [%] | inhibition [2] [%] | inhibition [3] | IC50 [4] [nM] | IC50 [5] [nM] | Compound
18 | < 10 | < 10 |  |  |  | Nc1ccccc1NC(=O)/C=C/c1cn([C@@H]2C[C@@H](C(=O)O)N(CCc3ccccc3)C2)nn1
19 | < 10 | 20 |  |  |  | Nc1ccccc1NC(=O)/C=C/c1cn([C@H]2C[C@@H](CO)N(CCc3ccccc3)C2)nn1
20 | < 0 | < 10 |  |  |  | Nc1ccccc1NC(=O)/C=C/c1cn([C@H]2C[C@H](C(=O)O)N(CCc3ccccc3)C2)nn1
21 | < 0 | 19 |  |  |  | Nc1ccccc1NC(=O)/C=C/c1cn([C@H]2C[C@@H](CO)N(CCCc3ccccc3)C2)nn1
22 | 67 | 59 | Tde | 900 | 1300 | Nc1ccccc1NC(=O)c1ccc(CNC(=O)OCc2cccnc2)cc1 [ENTINOSTAT]
23 | 31 | 36 |  | 2140 |  | Nc1ccccc1NC(=O)/C=C/c1cn([C@H]2C[C@@H](CO)N(Cc3ccccc3)C2)nn1
24 |  | < 10 |  |  |  | Nc1ccccc1NC(=O)/C=C/c1cn([C@@H]2C[C@@H](CO)N(CCc3ccccc3)C2)nn1
25 | < 0 | 14 |  |  |  | Nc1ccccc1NC(=O)/C=C/c1cn([C@H]2C[C@H](CO)N(Cc3ccccc3)C2)nn1
